Experimental data taken from US20080260753A1, “Mouse Models of Crohn's Disease and a Method to Develop Specific Therapeutics” (priority 2004, published 2008).

Assays:
[1] = system: BMDMs from WT and Nod2^2939iC (m/m) mice; test: Cytokine secretion by stimulated BMDMs (ELISA, immunoblotting); assay type: cell-based, mouse
Procedure: Macrophage culture and treatment. BMDMs were cultured as described (Park et al., Science 297: 2048, 2002). Confluent cultures were treated with different bacterial components including MDP (Bachem), synthetic peptidoglycan-Pam3Cys (InvivoGen), natural gram positive peptidoglycan (from S. aureus, Sigma), LPS (from E. coli, Sigma), and CpG-DNA (TIB MOLBIOL). At the indicated time points the cells or culture supernatants were collected and used to prepare cytoplasmic and nuclear protein extracts or total cellular RNA.
Gene expression analyses. Protein lysates were prepared from tissues and cultured macrophages, separated by SDS-polyacrylamide gel electrophoresis, transferred to Immobilon membranes (Millipore) and analyzed by immunoblotting. Total cellular RNA was extracted using TRIZOL (Invitrogen). cDNA was generated using SuperScript II (Invitrogen) and the amounts of the different mRNAs were measured by real-time PCR using GAPDH mRNA for normalization. Primer sequences are available upon request. Cytokine levels were measured using enzyme linked immunoadsorbent assays (ELISA).

WT and Nod2^2939iC mice = test: DSS colitis with IL-1RA or antibiotic treatment, body weight, survival and histological scoring; assay type: in vivo; conditions: for mortality: 3% DSS for 6 days, by 10 days after DSS exposure
Procedure: DSS colitis, IL-1RA treatment and histological scoring. Mice (8-12 weeks old) were given DSS (ICN Biomedicals Inc.) in the drinking water for 6 days as indicated and placed on regular water thereafter. When indicated, mice were also treated with neomycin sulfate (1.5 g/L) and metronidazole (1.5 g/L) (both from Sigma) in the drinking water or injected i.p. with either IL-1RA (Kineret®, Amgen Inc.) (100 mg/kg) in PBS or PBS alone once daily throughout the experiment. […] Histological scoring of fixed (10% formaldehyde) and sectioned (paraffin embedded) tissue was performed in a blinded manner. The scores were: 0=normal, 1=moderate mucosal inflammation without ulcer, 2=severe mucosal inflammation with ulcer (<1 mm) or no ulcer, 3=severe mucosal inflammation with ulcer (1-3 mm), 4=severe mucosal inflammation with ulcer (>3 mm).

Molecule: CC(=O)N[C@H]1C(O)O[C@H](CO)[C@@H](O)[C@@H]1O[C@H](C)C(=O)N[C@@H](C)C(=O)N[C@H](CCC(=O)O)C(N)=O (mixture of isomers) [MDP, muramyl dipeptide]
- IL-6 secretion ([1]; BMDMs stimulated with MDP): neither IL-6 nor TNFα were secreted
- release of mature IL-1β ([1]; Nod2^2939iC macrophages, MDP 1 μg/ml, 24 hrs): stimulated release of mature IL-1β

Molecule: IL-1RA: IL-1 receptor antagonist (IL-1RA) (Kineret®, Amgen Inc.)
- Average body weight loss (WT and Nod2^2939iC mice; 3% DSS in drinking water for 6 days, IL-1RA 100 mg/kg i.p. once daily from the start of DSS exposure, WT and Nod2^2939iC mice): improved
- differences in weight loss and inflammatory score between the genotypes (WT and Nod2^2939iC mice; 3% DSS plus IL-1RA 100 mg/kg/day, WT vs Nod2^2939iC mice): abolished
- histological score (WT and Nod2^2939iC mice; 11 days after initiation of 3% DSS, IL-1RA 100 mg/kg/day i.p., WT and Nod2^2939iC mice): improved
- colon histology: inflammation and ulceration compared to DSS alone (WT and Nod2^2939iC mice; 11 days after initiation of DSS plus IL-1RA (100 mg/kg/day), WT and Nod2^2939iC mice): decreased inflammation and ulceration

Molecule: dextran sodium sulfate [DSS]
- mortality (WT and Nod2^2939iC mice; Nod2^2939iC mice (n=16)): 37.5%
- mortality (WT and Nod2^2939iC mice; WT mice (n=19)): 0%
- time to death after DSS administration (WT and Nod2^2939iC mice; 6% DSS without oral antibiotics, WT and Nod2^2939iC mice): ≤ 9 days
